Among the data in patent US20040024024A1, “Aromatic sulfone hydroxamates and their use as protease inhibitors” (priority 2001, published 2004) are IC50 values, retold here.

What all share (test): In vitro MMP inhibition, IC50 determination (fluorogenic substrate I)
Holding throughout (assay type): biochemical

For test [1], the target named is T1, Human recombinant MMP-1 (Homo sapiens, UniProt P03956).
T1 construct: made in house; host or cells: MMP-1-transfected HT-1080 cells (spent media)
T1 sequence (P03956 100-469): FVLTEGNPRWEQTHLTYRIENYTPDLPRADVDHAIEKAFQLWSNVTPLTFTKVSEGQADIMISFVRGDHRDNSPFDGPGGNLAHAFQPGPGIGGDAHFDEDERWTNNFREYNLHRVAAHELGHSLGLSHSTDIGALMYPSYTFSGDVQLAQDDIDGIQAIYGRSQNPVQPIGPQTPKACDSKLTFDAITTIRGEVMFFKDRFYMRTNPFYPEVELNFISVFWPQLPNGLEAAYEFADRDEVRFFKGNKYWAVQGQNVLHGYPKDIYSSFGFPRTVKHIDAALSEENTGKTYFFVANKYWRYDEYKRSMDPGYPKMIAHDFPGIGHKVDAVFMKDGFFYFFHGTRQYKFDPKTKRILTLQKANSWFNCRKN
Here is the method:
(§1) Several hydroxamates and salts thereof were analyzed in in vitro assays to determine their ability to inhibit the MMP cleavage of peptide substrates. Inhibition (Ki) and IC50 constants were calculated from the assayed hydroxamate-MMP interactions.
(§2) Human recombinant MMP-1, MMP-2, MMP-9, MMP-13, and MMP-14 were used in this assay. All enzymes were prepared in Assignee's laboratories following usual laboratory procedures. Protocols for the preparation and use of these enzymes are available in the scientific literature. See, e.g., Enzyme Nomenclature (Academic Press, San Diego, Calif., 1992) (and the citations therein). See also, Frije et al., J. Biol. Chem., 26(24), 16766-73 (1994).
The MMP-1 proenzyme was purified from the spent media of MMP-1-transfected HT-1080 cells provided by Dr. Harold Welgus of Washington University (St. Louis, Mo.). The protein was purified on a zinc chelating column.
(§3) All MMPs were activated using 4-aminophenylmercuric acetate (“APMA”, Sigma Chemical, St. Louis, Mo.) or trypsin. MMP-9 also was activated using human recombinant MMP-3 (purified in Assignee's laboratory following standard cloning and purification techniques).
(§4) Two fluorogenic, methoxycoumarin-containing polypeptide substrates were used in the MMP inhibition assays:
(§5) MCA-ProLeuGlyLeuDpaAlaArgNH2 (I)
(§6) Here, “Dpa” is 3-(2,4-dinitrophenyl)-L-2,3-diaminopropionyl group, and “MCA” is 7-methoxycoumarin-4-yl acetyl. Substrate (I) was purchased from Baychem (Redwood City, Calif.), and substrate II was prepared Assignee's laboratory. Substrate I was used in the IC50 determination assays, while substrate II was used in the Ki determination assays. In the absence of MMP inhibitory activity, either substrate is cleaved at the Gly-Leu peptide bond. This cleavage separates the highly fluorogenic peptide from the 2,4-dinitrophenyl quencher, thus resulting in increase of fluorescent intensity.
(§7) The stock solutions of the assayed hydroxamates (or salts thereof) were prepared in 1% dimethyl sulfoxide (DMSO). These stock solutions were diluted in Buffer A (100 mM Tris-HCl, 100 mM NaCl, 10 mM CaCl2, 0.05% polyoxyethylene 23 lauryl ether, pH 7.5) to obtain solutions with different hydroxamate concentrations, i.e., assay solutions with different concentrations of the assayed MMP inhibitory compound. The experiment controls contained the same amount of Buffer A/DMSO as the assayed sample, but contained no hydroxamate (or salt thereof).
(§8) The assays from which the IC50 determinations were made were performed as follows. The MMPs were activated with either trypsin or APMA (4-aminophenylmercuric acetate, Sigma Chemical, St. Louis, Mo.). The assayed hydroxamate samples were, incubated in Microfluorrm White Plates (Dynatech, Chantilly, VA) and analyzed on a Perkin Elmer L550 plate reader (Norwalk, Conn.). The excitation wavelength was 328 nm, and the emission wavelength—415 nm. All samples (assayed hydroxamates and controls) were incubated in separate plates at room temperature in the presence of 4 μM of MMP substrate (I). As stated in the previous paragraph, samples containing varying concentrations of the same assayed hydroxamate were prepared. Inhibition was measured as a reduction in fluorescent intensity as a function of MMP inhibitor concentration.

Test [2] deals with T2, Human recombinant MMP-9 (Homo sapiens, UniProt P14780).
T2 construct: made in house; host or cells: MMP-9-transfected HT1080 cells (spent media)
T2 sequence (P14780 107-707 limits assumed): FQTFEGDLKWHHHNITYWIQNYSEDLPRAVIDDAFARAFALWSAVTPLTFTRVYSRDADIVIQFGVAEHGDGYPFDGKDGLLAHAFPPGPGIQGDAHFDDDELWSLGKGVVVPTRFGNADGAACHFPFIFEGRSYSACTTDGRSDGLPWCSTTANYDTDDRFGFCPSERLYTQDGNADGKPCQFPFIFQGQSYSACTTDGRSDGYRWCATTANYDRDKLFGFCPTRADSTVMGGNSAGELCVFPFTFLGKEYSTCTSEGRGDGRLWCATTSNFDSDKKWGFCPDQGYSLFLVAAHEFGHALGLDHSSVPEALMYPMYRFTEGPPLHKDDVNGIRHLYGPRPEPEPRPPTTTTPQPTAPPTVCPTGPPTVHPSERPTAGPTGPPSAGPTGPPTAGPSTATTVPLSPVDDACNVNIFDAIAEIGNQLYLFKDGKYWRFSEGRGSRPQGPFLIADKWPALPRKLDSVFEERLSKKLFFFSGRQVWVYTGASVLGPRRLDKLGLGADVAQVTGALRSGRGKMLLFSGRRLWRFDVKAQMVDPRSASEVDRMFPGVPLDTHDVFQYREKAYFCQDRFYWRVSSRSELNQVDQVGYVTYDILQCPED
Here is the method:
as §1, §2
The MMP-9 proenzyme was purified by gelatin Sepharose chromatography from spent media of MMP-9-transfected HT1080 cells provided by Dr. Howard Welgus of Washington University (St. Louis, Mo.).
as §3, §4, §5, §6, §7, §8

The target of test [3] is T3, Human recombinant MMP-13 (Homo sapiens, UniProt P45452).
T3 construct: made in house; host or cells: baculovirus / insect cells
The essentials:
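Fluorescence at 415 nm (excitation 328 nm) reports Gly-Leu cleavage of 4 μM quenched methoxycoumarin peptide substrate I. Human recombinant MMP-13, activated by trypsin or APMA, was incubated at room temperature with varied inhibitor concentrations in pH 7.5 Tris/NaCl/CaCl2 buffer; IC50 derived from reduced fluorescence.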

The target in test [4] is T4, Human recombinant MMP-2 (Homo sapiens, UniProt P08253).
T4 construct: made in house; host or cells: MMP-2-transfected p2AHT2 cells
T4 sequence (P08253 110-660): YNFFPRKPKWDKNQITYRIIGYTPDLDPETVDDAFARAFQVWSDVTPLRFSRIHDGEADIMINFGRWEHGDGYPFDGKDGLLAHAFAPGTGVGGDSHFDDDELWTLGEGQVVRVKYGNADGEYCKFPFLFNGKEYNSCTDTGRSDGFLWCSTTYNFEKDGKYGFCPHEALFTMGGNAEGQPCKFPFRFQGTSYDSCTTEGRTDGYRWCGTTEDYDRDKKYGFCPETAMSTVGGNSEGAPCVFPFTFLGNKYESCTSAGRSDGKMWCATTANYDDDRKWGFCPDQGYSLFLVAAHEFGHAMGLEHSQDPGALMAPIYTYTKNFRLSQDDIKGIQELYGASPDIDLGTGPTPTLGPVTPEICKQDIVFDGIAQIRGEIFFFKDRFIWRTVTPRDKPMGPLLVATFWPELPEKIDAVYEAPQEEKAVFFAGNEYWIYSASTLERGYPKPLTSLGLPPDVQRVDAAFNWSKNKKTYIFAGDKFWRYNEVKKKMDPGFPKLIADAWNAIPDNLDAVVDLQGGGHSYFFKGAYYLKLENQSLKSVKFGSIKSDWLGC
The essentials: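 IC50 was derived from the concentration-dependent fall in fluorescence (ex 328, em 415 nm) on Gly-Leu cleavage of 4 μM MCA/Dpa-quenched substrate I. Assays ran at room temperature in pH 7.5 Tris/NaCl/CaCl2/Brij buffer with MMP-2 activated by trypsin or APMA; inhibitors were diluted from 1% DMSO stocks.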

Test [5] deals with T5, Human recombinant MMP-14 (Homo sapiens, UniProt P50281).
T5 construct: The catalytic domain enzyme was expressed in E. coli inclusion bodies, solubilized in urea; made in house
Here is the method: as §1, §2
The MMP-14 full length cDNA was provided by Dr. Gregory Goldberg of Washington University (St. Louis, Mo.). The catalytic domain enzyme was expressed in E. coli inclusion bodies, solubilized in urea, purified on a preparative […] reverse phase HPLC column, and then refolded in the presence of zinc acetate and purified for use.
as §3, §4, §5, §6, §7, §8

The mark [6] stands for this setting: substrate (I) 4 μM, room temperature, values not in parenthesis.

Structures can show the parent of a compound that is named as a salt.

`O=C(NO)C1(S(=O)(=O)c2ccc(OCCCSc3nc4ccccc4o3)cc2)CCOCC1` [Example 33, 4-[[4-[3-(2-benzoxazolylthio)propoxy]phenyl]sulfonyl]tetrahydro-N-N-hydroxy-2H-pyran-4-carboxamide]: the concentration for half-maximal inhibition (IC50) – broadly, the concentration that inhibits the measured activity by half – in test [1] (setting [6]) is above 10 µM; in test [2] (setting [6]), 7.9 nM; in test [3] (setting [6]) it was 1 nM; in test [4] (setting [6]), 16 nM; in test [5] (setting [6]), 4.94 µM.

As for `O=C(OCCCCOc1ccc(S(=O)(=O)C2(C(=O)NO)CCOCC2)cc1)N1CCc2ccccc2C1` [Example 34], the IC50 in test [1] (setting [6]) is 0.429 µM; in test [2] (setting [6]), above 10000 nM; in test [3] (setting [6]), 3 nM; in test [4] (setting [6]), 36.6 nM; in test [5] (setting [6]), above 10 µM.

As to `O=C1c2ccccc2C(=O)N1CCCCc1ccc(S(=O)(=O)C2(C(=O)NO)CCOCC2)cc1` [Example 35], the IC50 in test [1] (setting [6]) was above 10 µM; in test [2] (setting [6]), above 10000 nM; in test [3] (setting [6]), 3 nM; in test [4] (setting [6]) it was 600 nM; in test [5] (setting [6]) it was above 10 µM.

For the molecule `O=C(NO)C1(S(=O)(=O)c2ccc(OCCCc3nc4ccccc4o3)cc2)CCOCC1` [Example 37, 4-[[4-[3-(2-benzoxazolyl)propoxy]phenyl]sulfonyl]tetrahydro-N-hydroxy-2H-pyran-4-carboxamide], the half-maximal inhibitory concentration (IC50) in test [1] (setting [6]) was 8.71 µM; in test [2] (setting [6]) it was 449 nM; in test [3] (setting [6]), 1.4 nM; in test [4] (setting [6]), 30.3 nM; in test [5] (setting [6]), above 10 µM.

`COCCN1CCC(C(=O)NO)(S(=O)(=O)c2ccc(OCCCSc3nc4ccccc4o3)cc2)CC1` [Example 43, 4-([4-[3-(1,3-benzoxazol-2-ylthio)propoxy]phenyl]sulfonyl)-N-hydroxy-1-(2-methoxyethyl)piperidine-4-carboxamide Hydrochloride]: the IC50 was above 10 µM in test [1] (setting [6]); 1 nM in test [2] (setting [6]); 1 nM in test [3] (setting [6]); 4.8 nM in test [4] (setting [6]); 2.08 µM in test [5] (setting [6]).

For `COCCN1CCC(C(=O)NO)(S(=O)(=O)c2ccc(OCCCc3cccc(-c4ccccc4)c3)cc2)CC1` [Example 44], the IC50 in test [1] (setting [6]) was above 10 µM; in test [2] (setting [6]) it was 154 nM; in test [3] (setting [6]), 1.4 nM; in test [4] (setting [6]), 133 nM; in test [5] (setting [6]) it was 4.98 µM.

For the molecule `O=C(NO)C1(S(=O)(=O)c2ccc(OCCc3cccc(-c4ccccc4)c3)cc2)CCOCC1` [Example 99], the IC50 is above 10 µM in test [1] (value outside parenthesis); 3440 nM in test [2] (value outside parenthesis); 0.4 nM in test [3] (value outside parenthesis); 246 nM in test [4] (value outside parenthesis); above 10 µM in test [5] (value outside parenthesis).

With `COCCN1CCC(C(=O)NO)(S(=O)(=O)c2ccc(OCCCn3nnc(-c4ccc(C(F)(F)F)cc4)n3)cc2)CC1` [Example 103], the IC50 was above 10 µM in test [1] (value outside parenthesis); 1130 nM in test [2] (value outside parenthesis); 0.4 nM in test [3] (value outside parenthesis); 85.8 nM in test [4] (value outside parenthesis); above 10 µM in test [5] (value outside parenthesis).

`CC(C)C[C@@H]1C(=O)N(CCCOc2ccc(S(=O)(=O)C3(C(=O)NO)CCOCC3)cc2)C(=O)N1c1ccccc1` [Example 105]: the IC50 in test [1] (value outside parenthesis) was above 10 µM; in test [2] (value outside parenthesis), 7690 nM; in test [3] (value outside parenthesis) it was 9.7 nM; in test [4] (value outside parenthesis), 1370 nM; in test [5] (value outside parenthesis) it was above 10 µM.

On to `CC[C@@H]1C(=O)N(CCCOc2ccc(S(=O)(=O)C3(C(=O)NO)CCOCC3)cc2)C(=O)N1c1ccccc1` [Example 106], for which the half-maximal inhibitory concentration (IC50) in test [1] (value outside parenthesis) is above 10 µM; in test [2] (value outside parenthesis), above 10000 nM; in test [3] (value outside parenthesis), 3.5 nM; in test [4] (value outside parenthesis), 1050 nM; in test [5] (value outside parenthesis), above 10 µM.

In the case of `Cc1cc(-c2cccc(CCOc3ccc(S(=O)(=O)C4(C(=O)NO)CCOCC4)cc3)c2)ccc1F` [Example 120], the IC50 in test [1] (value outside parenthesis) is above 10 µM; in test [2] (value outside parenthesis) it was above 10000 nM; in test [3] (value outside parenthesis) it was 5.8 nM; in test [4] (value outside parenthesis) it was 1170 nM; in test [5] (value outside parenthesis) it was above 10 µM.

With `O=C(NO)C1(S(=O)(=O)c2ccc(OCCc3cccc(-c4ccc(F)c(F)c4)c3)cc2)CCOCC1` [Example 122], the IC50 in test [1] (value outside parenthesis) is above 10 µM; in test [2] (value outside parenthesis) it was 7670 nM; in test [3] (value outside parenthesis) it was 1.9 nM; in test [4] (value outside parenthesis), 760 nM; in test [5] (value outside parenthesis), above 10 µM.

As to `COCCN1CCC(C(=O)NO)(S(=O)(=O)c2ccc(OCCCn3nnc(-c4ccc(SC)cc4)n3)cc2)CC1` [Example 130], the IC50 was 4.61 µM in test [1] (value outside parenthesis); 50.2 nM in test [2] (value outside parenthesis); 0.3 nM in test [3] (value outside parenthesis); 4.7 nM in test [4] (value outside parenthesis); 0.5 µM in test [5] (value outside parenthesis).

With `CC(C)[C@H]1C(=O)N(CCCOc2ccc(S(=O)(=O)C3(C(=O)NO)CCOCC3)cc2)C(=O)N1c1ccccc1` [Example 134], the 50% inhibitory concentration (IC50) in test [1] (value outside parenthesis) is above 10 µM; in test [2] (value outside parenthesis), above 10000 nM; in test [3] (value outside parenthesis) it was 7.7 nM; in test [4] (value outside parenthesis), 2380 nM; in test [5] (value outside parenthesis), above 10 µM.

`CCN1CCC(C(=O)NO)(S(=O)(=O)c2ccc(OCCCc3cccc(-c4ccc(F)cc4)c3)cc2)CC1` [Example 138]: the half-maximal inhibitory concentration (IC50) in test [1] (value outside parenthesis) is above 10 µM; in test [2] (value outside parenthesis), 1900 nM; in test [3] (value outside parenthesis), 2.1 nM; in test [4] (value outside parenthesis), 247 nM; in test [5] (value outside parenthesis) it was above 10 µM.
